Data set [1] deals with T1, hMIGA2long (Homo sapiens, UniProt Q7L4E1).
T1 construct: gene MIGA2; N-terminal 3xFLAG (Expi293F) and/or C-terminal His6 (E. coli), tags kept; dimer
T1 sequence (Q7L4E1 170-593): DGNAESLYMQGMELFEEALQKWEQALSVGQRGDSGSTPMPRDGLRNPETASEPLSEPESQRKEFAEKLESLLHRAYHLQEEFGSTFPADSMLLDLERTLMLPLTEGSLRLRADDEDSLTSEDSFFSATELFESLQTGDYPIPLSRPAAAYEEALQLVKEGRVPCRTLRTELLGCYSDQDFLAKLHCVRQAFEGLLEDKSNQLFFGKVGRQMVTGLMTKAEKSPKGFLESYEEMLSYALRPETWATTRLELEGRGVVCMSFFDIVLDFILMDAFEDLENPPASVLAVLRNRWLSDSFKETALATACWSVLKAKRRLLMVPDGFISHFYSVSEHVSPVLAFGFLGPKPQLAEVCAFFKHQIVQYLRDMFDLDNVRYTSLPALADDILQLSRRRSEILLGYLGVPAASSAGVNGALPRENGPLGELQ
Kind of data set: FRET lipid transfer between tethered liposomes. The class given is biochemical. The note with it: labelled compound; 0.25 µM protein, 2% NBD-lipid in donor liposomes, 30°C.

Another data set has as its target T2, hMIGA2C (Homo sapiens, UniProt Q7L4E1).
T2 construct: gene MIGA2; C-terminal domain only, residues 306-593, C-terminal His6 kept, expressed in E. coli BL21(DE3); monomer by SEC
T2 sequence (Q7L4E1 306-593): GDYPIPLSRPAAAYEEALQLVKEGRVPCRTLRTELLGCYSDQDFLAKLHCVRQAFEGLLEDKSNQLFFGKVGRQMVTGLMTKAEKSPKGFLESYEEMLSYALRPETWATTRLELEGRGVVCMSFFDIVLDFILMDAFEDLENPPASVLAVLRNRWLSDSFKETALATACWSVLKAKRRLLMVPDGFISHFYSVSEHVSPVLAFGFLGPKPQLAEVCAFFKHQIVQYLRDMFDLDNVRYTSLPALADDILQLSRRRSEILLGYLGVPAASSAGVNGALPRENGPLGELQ
The data set can be described thus: end-point lipid transfer between tethered liposomes. The class given is biochemical. Conditions: labelled compound; 0.32 µM protein, 2% NBD-lipid in donor liposomes, 30 min.

The target of data set [2] is T3, hMIGA2long (Homo sapiens, UniProt Q7L4E1, R357N/S428G).
T3 construct: gene MIGA2; N-terminal 3xFLAG (Expi293F) and/or C-terminal His6 (E. coli), tags kept; dimer
T3 sequence (Q7L4E1 170-593 R357N/S428G): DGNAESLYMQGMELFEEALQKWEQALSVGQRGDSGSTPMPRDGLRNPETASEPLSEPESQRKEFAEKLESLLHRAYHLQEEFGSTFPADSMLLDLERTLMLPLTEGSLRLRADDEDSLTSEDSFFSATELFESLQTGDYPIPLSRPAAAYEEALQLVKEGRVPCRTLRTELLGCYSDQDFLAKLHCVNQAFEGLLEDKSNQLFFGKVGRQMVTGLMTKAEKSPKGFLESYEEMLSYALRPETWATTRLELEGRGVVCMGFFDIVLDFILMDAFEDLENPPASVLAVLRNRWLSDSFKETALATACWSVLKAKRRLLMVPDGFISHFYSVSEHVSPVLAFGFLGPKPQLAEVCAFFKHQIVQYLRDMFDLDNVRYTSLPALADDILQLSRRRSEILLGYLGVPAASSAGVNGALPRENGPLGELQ
Kind of data set: FRET lipid transfer between tethered liposomes. The note with it: labelled compound; 0.25 µM protein, 30°C; mutant M3, 3xFLAG and His6 tags. The class given is biochemical.

For data set [3], the target named is T4, hMIGA2long (Homo sapiens, UniProt Q7L4E1, V376D/L438E/F495H/I528K).
T4 construct: gene MIGA2; N-terminal 3xFLAG (Expi293F) and/or C-terminal His6 (E. coli), tags kept; dimer
T4 sequence (Q7L4E1 170-593 V376D/L438E/F495H/I528K): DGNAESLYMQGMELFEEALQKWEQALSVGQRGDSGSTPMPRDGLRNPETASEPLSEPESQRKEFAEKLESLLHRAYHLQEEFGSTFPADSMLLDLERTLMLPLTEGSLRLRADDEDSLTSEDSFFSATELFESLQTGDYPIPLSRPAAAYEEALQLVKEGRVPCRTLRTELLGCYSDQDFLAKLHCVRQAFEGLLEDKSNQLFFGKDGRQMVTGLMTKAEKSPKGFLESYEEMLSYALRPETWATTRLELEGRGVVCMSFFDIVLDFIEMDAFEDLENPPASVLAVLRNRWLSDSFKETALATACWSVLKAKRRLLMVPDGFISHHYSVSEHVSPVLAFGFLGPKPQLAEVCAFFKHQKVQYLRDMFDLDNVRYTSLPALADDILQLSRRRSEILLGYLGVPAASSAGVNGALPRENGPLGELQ
The data set can be described thus: FRET lipid transfer between tethered liposomes. The class given is biochemical. The note with it: labelled compound; 0.25 µM protein, 30°C; mutant M1, 3xFLAG and His6 tags.

In data set [4] the target is T5, hMIGA2long (Homo sapiens, UniProt Q7L4E1, V381E/V502K/L506D/F524H).
T5 construct: gene MIGA2; N-terminal 3xFLAG (Expi293F) and/or C-terminal His6 (E. coli), tags kept; dimer
T5 sequence (Q7L4E1 170-593 V381E/V502K/L506D/F524H): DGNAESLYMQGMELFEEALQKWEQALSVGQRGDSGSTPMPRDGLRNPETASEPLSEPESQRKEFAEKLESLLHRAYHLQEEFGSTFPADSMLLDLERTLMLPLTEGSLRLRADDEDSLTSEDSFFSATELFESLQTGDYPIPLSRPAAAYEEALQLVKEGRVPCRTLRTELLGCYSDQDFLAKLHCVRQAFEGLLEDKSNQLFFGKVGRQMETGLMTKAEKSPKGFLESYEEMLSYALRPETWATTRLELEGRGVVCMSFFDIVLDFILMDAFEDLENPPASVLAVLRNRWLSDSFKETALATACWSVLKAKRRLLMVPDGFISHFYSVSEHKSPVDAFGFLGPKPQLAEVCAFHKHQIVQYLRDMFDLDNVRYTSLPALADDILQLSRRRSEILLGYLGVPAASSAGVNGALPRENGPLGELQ
Kind of data set: FRET lipid transfer between tethered liposomes. Conditions: labelled compound; 0.25 µM protein, 30°C; mutant M2, 3xFLAG and His6 tags. The class given is biochemical.

Data set [5] deals with T1, hMIGA2long. Kind of data set: native PAGE co-migration, NBD fluorescence. The class given is binding. The note with it: labelled compound; on ice 2 h.
Data set [6] deals with human MIGA2 cytosolic fragment with part of the linker region (coiled-coil) and the C-terminal domain, C-terminal 6xhis (human) (UniProt Q7L4E1). Kind of data set: native MS; 200 mM ammonium acetate, 2 mM DTT; protein 1-5 μM; Q Exactive UHMR.
Data set [7] concerns the molecule itself. Kind of data set: SEC; Superdex 200 16/60, with size standards. (SEC sorts molecules by how far they enter the pores of the column.)

The results in this text go back to publication PMC9597353, “Mitoguardin-2–mediated lipid transfer preserves mitochondrial morphology and lipid droplet formation” (The Journal of Cell Biology, 2022).

Take `CCCCCCCC/C=C\CCCCCCCC(=O)OC[C@H](COP(=O)(O)OC[C@H](N)C(=O)O)OC(=O)CCCCCCCCCCCNc1ccc([N+](=O)[O-])c2nonc12` [NBD-PSacyl]: at hMIGA2long [1], the “FRET lipid transfer between tethered liposomes” value was “hMIGA2long can transport NBD-PSacyl, NBD-PAacyl, NBD-PEacyl, and NBD-PCacyl”. Further, on hMIGA2C, the “end-point lipid transfer between tethered liposomes” value is “Both hMIGA2long and hMIGA2C transport NBD-PEacyl, -PSacyl, -PAacyl, and NBD-PCacyl”.

For `CCCCCCCC/C=C\CCCCCCCC(=O)OC[C@H](COP(=O)(O)OCCN)OC(=O)CCCCCCCCCCCNc1ccc([N+](=O)[O-])c2nonc12` [NBD-PEacyl], the lipid transfer impaired entry is given as “all three mutant constructs (M1, M2, M3) are lipid transfer impaired” on hMIGA2long [2]; “all three mutant constructs (M1, M2, M3) are lipid transfer impaired” on hMIGA2long [3]; “all three mutant constructs (M1, M2, M3) are lipid transfer impaired” on hMIGA2long [4]. The “end-point lipid transfer between tethered liposomes” value at hMIGA2C is “Both hMIGA2long and hMIGA2C transport NBD-PEacyl, -PSacyl, -PAacyl, and NBD-PCacyl”. For the same molecule, on hMIGA2long [5], the “native PAGE co-migration, NBD fluorescence” value (“native PAGE co-migration” for short) was “Phospholipids (NBD-PAacyl, NBD-PCacyl NBD-PShead, NBD-PEacyl) visualized by their fluorescence, comigrated with protein”.

In the case of `CCCCCCCC/C=C\CCCCCCCC(=O)OC[C@H](COP(=O)(O)OC[C@H](Nc1ccc([N+](=O)[O-])c2nonc12)C(=O)O)OC(=O)CCCCCCC/C=C\CCCCCCCC` [NBD-PShead], at hMIGA2long [5], the “native PAGE co-migration” value is listed as “Phospholipids (NBD-PAacyl, NBD-PCacyl NBD-PShead, NBD-PEacyl) visualized by their fluorescence, comigrated with protein”.

For the molecule `CCCCCCCC/C=C\CCCCCCCC(=O)OC[C@H](COP(=O)([O-])OCC[N+](C)(C)C)OC(=O)CCCCCCCCCCCNc1ccc([N+](=O)[O-])c2nonc12` [NBD-PCacyl], the “end-point lipid transfer between tethered liposomes” value at hMIGA2C was “Both hMIGA2long and hMIGA2C transport NBD-PEacyl, -PSacyl, -PAacyl, and NBD-PCacyl”. In addition, at hMIGA2long [5], the “native PAGE co-migration” value was “Phospholipids (NBD-PAacyl, NBD-PCacyl NBD-PShead, NBD-PEacyl) visualized by their fluorescence, comigrated with protein”.

For the molecule `CCCCCCCC/C=C\CCCCCCCC(=O)OC[C@H](COP(=O)(O)O)OC(=O)CCCCCCCCCCCNc1ccc([N+](=O)[O-])c2nonc12` [NBD-PAacyl], on hMIGA2C, the “end-point lipid transfer between tethered liposomes” value was “Both hMIGA2long and hMIGA2C transport NBD-PEacyl, -PSacyl, -PAacyl, and NBD-PCacyl”. The “native PAGE co-migration” value on hMIGA2long [5] is on record as “Phospholipids (NBD-PAacyl, NBD-PCacyl NBD-PShead, NBD-PEacyl) visualized by their fluorescence, comigrated with protein”.

“human MIGA2 cytosolic fragment with part of the linker region (coiled-coil) and the C-terminal domain, C-terminal 6xhis (from UniProt Q7L4E1 170-593) (domain or fragment)” had a stoichiometry N in data set [6] of 2.

B1: C. elegans MIGA2 cytosolic fragment with the coiled-coil of the linker region and the C-terminal domain (residues 106-496) (domain or fragment, UniProt Q21096 106-496, looked up)
chain: SMNPIEADITSGQELCTELRKTIEKVHHNLEMVKNRSSKDMERSIKIEGILKGLKQVEDEIVLLVPQMEDFRDDNMEFYSVSGGSGYAGSVRTGRSRTLSVLSDDSFRSAVEEFACDIDDIDFVSDAANLDKNELRFLDEGMQAALNGEVKYRKSRMEFCKCDSETDFAAKLYCVRQALTNALKDEHKRVWLAKCGRTLLADFIRHTKQDPVKFFNAYDEMLEYVSNDRNEEQLRQDVEGRGVCETGFYDVAIDFIILDAFEDLKSPPSAVYSVTKNYFMSMSMKYSTLNTIIWSIIKSKRQRLKNPDGFIAKFYNISETVMPAITLGFLGTDERLGELCQYFKEQVVQFVLDVFNTQKVCYRSLEEMSEDVWIVMRNRLEAVQTRMSNEL
notes: C. elegans MIGA (mitoguardin homolog), Uniprot Q21096, residues 106-496: coiled-coil segment of the linker region and the C-terminal domain; Co-purifies with glycerophospholipid from E. coli; Plasmids of the study are in Addgene (192832, 192833, 192834, 192835, 192837, 192866, 192867); also called CeMIGA2_(long); CeMIGA_(long); source: E. coli C43 (DE3), purified (Ni-NTA, sumo protease, second …)
On to B1, for which, in data set [7], the “stoichiometry N” value turned out to be 2.

One may read the stoichiometry N as the number of molecules, sites or subunits per partner or assembly.
